In brackets after ≈: the same amount, converted by molar mass.
Assays:
[1] = tested on: S. aureus; experiment: Susceptibility testing in liquid media (MIC assay) against S. aureus; format: cell-based; conditions: 35° C. overnight (16 to 20 hours); for MIC: Staphylococcus aureus
Experimental: (§1) Compounds of this invention were tested for antimicrobial activity by susceptibility testing in liquid media. Such assays were performed within the guidelines of the latest NCCLS document governing such practices: “M7-A5 Methods for dilution Antimicrobial Susceptibility Tests for Bacteria that Grow Aerobically; Approved Standard—Fifth Edition (2000)”. Other publications such as “Antibiotics in Laboratory Medicine” (Edited by V. Lorian, Publishers Williams and Wilkins, 1996) provide essential practical techniques in laboratory antibiotic testing.
(§2) Several discrete bacterial colonies (3 to 7) from a freshly streaked plate were transferred to an appropriate rich broth medium such as MHB, supplemented where appropriate for the more fastidious organisms. This was grown overnight to high density followed by a 1 or 2-thousand-fold dilution to give an inoculation density of between 5×10^5 and 5×10^6 CFU per mL. Alternatively, the freshly picked colonies can be incubated at 37° C. for about 4 to 8 hours until the culture equals or exceeds a turbidity of a 0.5 McFarland standard (approximately 1.5×10^8 cells per mL) and diluted to give the same CFU per mL as above. In a more convenient method, the inoculum was prepared using a commercially available mechanical device (the BBL PROMPT System) that involves touching five colonies directly with a wand, containing crosshatch grooves at its bottom, followed by suspension of the bacteria in an appropriate volume of saline. Dilution to the appropriate inoculum cell density was made from this cell suspension. The broth used for testing consists of MHB supplemented with 50 mg per L of Ca^2+ and 25 mg per L of Mg^2+. Standard dilution panels of control antibiotics were made and stored as in the NCCLS standard M7-A5, the dilution range typically being in the 128 μg per mL to 0.015 μg per mL (by 2-fold serial dilution). The test compounds were dissolved and diluted fresh for experimentation on the same day; the same or similar ranges of concentration as above being used. The test compounds and controls were dispensed into a multiwell plate and test bacteria added such that the final inoculation was approximately 5×10^4 CFU per well and the final volume was 100 μL. The plates were incubated at 35° C. overnight (16 to 20 hours) and checked by eye for turbidity or quantitated with a multiwell plate reader. […] Such determinations were also compared to the appropriate tables contained in the above two publications to ensure that the range of antibacterial activity is within the acceptable range for this standardized assay.
(§3) The compound numbers correspond to the compound numbers in Table 1.

[2] = tested on: S. pneumoniae; experiment: Susceptibility testing in liquid media (MIC assay) against S. pneumoniae; format: cell-based; conditions: Streptococcus pneumoniae, 35° C. overnight (16 to 20 hours)
Experimental: as §1, §2, §3

Row | MIC [1] [µg/mL] | MIC [2] [µg/mL] | Molecule | MIC (Activity) against S. aureus [1]
1 | ≤ 0.5 | ≤ 0.5 | CCNC(=O)Nc1nc2cc(-c3cccnc3)cc(C(=O)OC)c2[nH]1 [Compound I-1, 2-(3-Ethyl-ureido)-6-pyridin-3-yl-3H-benzoimidazole-4-carboxylic acid methyl ester] | 
2 | ≤ 0.5 | ≤ 0.5 | CCNC(=O)Nc1nc2cc(-c3cccnc3)cc(C(=O)C(C)CC)c2[nH]1 (centres unmarked) [Compound I-21] | 
3 | ≤ 0.5 | ≤ 0.5 | CCNC(=O)Nc1nc2cc(-c3cccnc3)cc(/C(CC)=N/OC)c2[nH]1 [Compound I-38] | 
4 | ≤ 0.5 | ≤ 0.5 | CCNC(=O)Nc1nc2cc(-c3cncnc3)cc(C(=O)CC)c2[nH]1 [Compound I-23] | 
5 | ≤ 0.5 | ≤ 0.5 | CCNC(=O)Nc1nc2cc(-c3cccnc3)cc(C(=O)OC(C)C)c2[nH]1 [Compound I-33] | 
6 | 0.5 to 1 (≈ 1.4 to 2.81 µM) |  | CCNC(=O)Nc1nc2cc(-c3cccnc3)c(F)c(C(=O)NC)c2[nH]1 [Compound I-6] | 
7 | > 1 |  | CCNC(=O)Nc1nc2cc(-c3cccnc3)cc(C(=O)NC)c2[nH]1 [Compound I-16] | 
8 | ≤ 0.5 | ≤ 0.5 | CCNC(=O)Nc1nc2cc(-c3cncnc3)cc(C(=O)OC)c2[nH]1 [Compound I-5] | 
9 | ≤ 0.5 | ≤ 0.5 | CCNC(=O)Nc1nc2cc(-c3cccnc3)cc(C(=O)c3nccn3C)c2[nH]1 [Compound I-26] | 
10 | > 1 |  | CCNC(=O)Nc1nc2cc(-c3cccnc3)cc(C(=O)Nc3cc(C)[nH]n3)c2[nH]1 [Compound I-15] | 
11 | ≤ 0.5 | ≤ 0.5 | CCNC(=O)Nc1nc2cc(-c3cccnc3)cc(C(=O)CC(C)C)c2[nH]1 [Compound I-24] | 
12 |  | > 1 | CCNC(=O)Nc1nc2cc(-c3cccnc3)cc(C(=O)CN(C)C)c2[nH]1 [Compound I-4] | 
13 | > 1 | ≤ 0.5 | CCNC(=O)Nc1nc2cc(-c3cccnc3)cc(C(=O)c3cn(C)cn3)c2[nH]1 [Compound I-30] | 
14 | ≤ 0.5 | ≤ 0.5 | CCNC(=O)Nc1nc2cc(-c3cccnc3)cc(C(=O)CC)c2[nH]1 [Compound I-19] | 
15 | ≤ 0.5 | ≤ 0.5 | CCNC(=O)Nc1nc2cc(-c3cccnc3)cc(C(C)=O)c2[nH]1 [Compound I-18] | 
16 | ≤ 0.5 | ≤ 0.5 | CCNC(=O)Nc1nc2cc(-c3cccnc3)cc(C(=O)C3CC3)c2[nH]1 [Compound I-25] | 
17 | ≤ 0.5 | ≤ 0.5 | CCNC(=O)Nc1nc2cc(-c3cccnc3)cc(C(=O)C(C)C)c2[nH]1 [Compound I-22] | 
18 | 0.5 to 1 (≈ 1.21 to 2.41 µM) | ≤ 0.5 | CCNC(=O)Nc1nc2cc(-c3cccnc3)cc(C(=O)NCc3ccccc3)c2[nH]1 [Compound I-17] | 
19 | > 1 |  | CCNC(=O)Nc1nc2cc(-c3cncnc3)cc(C(=O)NC)c2[nH]1 [Compound I-7] | 
20 | ≤ 0.5 | ≤ 0.5 | CCNC(=O)Nc1nc2cc(-c3cccnc3)cc(C(=O)OCC)c2[nH]1 [Compound I-34] | 
21 | ≤ 0.5 | ≤ 0.5 | CCCC(=O)c1cc(-c2cccnc2)cc2nc(NC(=O)NCC)[nH]c12 [Compound I-20] | 
22 | > 1 |  | CCNC(=O)Nc1nc2cc(-c3cccnc3)cc(C(=O)NCCO)c2[nH]1 [Compound I-13] | 

Further lines, the molecule ahead of its results:

Row | Molecule | MIC [1] [µg/mL] | MIC [2] [µg/mL] | MIC (Activity) against S. aureus [1]
23 | CCNC(=O)Nc1nc2cc(-c3cccnc3)c(F)c(C(=O)OC)c2[nH]1 [Compound I-3] | ≤ 0.5 |  | 
24 | CCNC(=O)Nc1nc2cc(-c3cccnc3)cc(C(=O)CCCCO)c2[nH]1 [Compound I-37] | 0.5 to 1 (≈ 1.31 to 2.62 µM) | ≤ 0.5 | 
25 | CCC/C(=N\OC)c1cc(-c2cccnc2)cc2nc(NC(=O)NCC)[nH]c12 [Compound I-39] | ≤ 0.5 | ≤ 0.5 | 
26 | CCNC(=O)Nc1nc2cc(-c3cccnc3)cc(/C(=N/OC)C3CC3)c2[nH]1 [Compound I-40, 1-[4-(Cyclopropyl-methoxyimino-methyl)-6-pyridin-3-yl-1H-benzoimidazol-2-yl]-3-ethyl-urea] | ≤ 0.5 | ≤ 0.5 | 
27 | CCNC(=O)Nc1nc2cc(-c3cccnc3)cc(/C(=N/OCC)C3CC3)c2[nH]1 [Compound I-41] | ≤ 0.5 | ≤ 0.5 | 
28 | CCNC(=O)Nc1nc2cc(-c3cccnc3)cc(C(=O)C3CCCC3)c2[nH]1 [Compound I-28] | ≤ 0.5 | ≤ 0.5 | 
29 | CCNC(=O)Nc1nc2cc(-c3cc(C)n(Cc4ccccn4)c(=O)c3)cc(C(=O)OC)c2[nH]1 [Compound I-32] | ≤ 0.5 | ≤ 0.5 | 
30 | CCNC(=O)Nc1nc2cc(-c3ccn(C)c(=O)c3)c(F)c(C(=O)NC)c2[nH]1 [Compound I-36] | > 1 | ≤ 0.5 | 
31 | CCNC(=O)Nc1nc2cc(-c3cccnc3)cc(/C(=N/O)C3CCCC3)c2[nH]1 [Compound I-43] | ≤ 0.5 | ≤ 0.5 | 
32 | CCNC(=O)Nc1nc2cc(-c3cccnc3)cc(C(=O)CCc3ccccn3)c2[nH]1 [Compound I-31] | ≤ 0.5 | ≤ 0.5 | 
33 | CCNC(=O)Nc1nc2cc(-c3cccnc3)cc(C(=O)C3CCCCC3)c2[nH]1 [Compound I-11] | ≤ 0.5 | ≤ 0.5 | 
34 | 1-(7-Cyclohexanecarbonyl-5-pyridin-3-yl-1H-benzoimidazol-2-yl)-3-ethyl-urea [Compound I-14] |  |  | C (an MIC of greater than 1.0 μg/mL)
35 | CCOC(=O)Nc1nc2cc(-c3cccnc3)cc(C(=O)CC)c2[nH]1 [Compound I-44, (7-Propionyl-5-pyridin-3-yl-1H-benzoimidazol-2-yl)-carbamic acid ethyl ester] | > 1 | ≤ 0.5 | 
36 | CCNC(=O)Nc1nc2cc(-c3cccnc3)cc(/C(=N\O)C3CCCC3)c2[nH]1 [Compound I-42] | ≤ 0.5 | ≤ 0.5 | 
37 | CCNC(=O)Nc1nc2cc(-c3cccnc3)cc(C(=O)c3nccn3CC)c2[nH]1 [Compound I-29] | ≤ 0.5 | ≤ 0.5 | 
38 | CCNC(=O)Nc1nc2cc(-c3ccn(C)c(=O)c3)c(F)c(C(=O)OC)c2[nH]1 [Compound I-35] | ≤ 0.5 | ≤ 0.5 | 
